Holding throughout (assay type): in vivo, human
One test concerns adult patients with MDD. Briefly: Response rate by treatment and genetic subgroup (responders: 50% decrease in MADRS total score from baseline at week 8). As to conditions: for Response rate: 20 mg/day, 8 weeks; for No Response (number of subjects) / Response (number of subjects): Lu 20 mg only. As to the method:
(§1) Multicenter, randomized, double-blind, parallel-group, placebo-controlled, drug-referenced, fixed-dose studies were conducted to evaluate the efficacy and safety of vortioxetine (10, 15 and 20 mg/Day) in the acute treatment of adult patients with MDD. A total of 595 individuals meeting the diagnostic criteria from the DSM-IV-TR for recurrent MDD were included in the studies. The current major depressive disorder for each individual was confirmed by the Structured Clinical Interview for DSM Disorders (SCID). […] Individuals were treated with 10, 15 or 20 mg vortioxetine, or a different drug, or a placebo daily for 8 weeks.
(§2) Subjects were seen weekly during the first 2 weeks of treatment and then every 2 weeks up to the end of the 8-week treatment period. The primary outcome measure was change from baseline in MADRS total score after 8 Weeks of treatment. The Montgomery Asberg Depression Rating Scale (MADRS) is a depression rating scale consisting of 10 items, each rated 0 (no symptom) to 6 (severe symptom). The 10 items represent the core symptoms of depressive illness. The rating is based on a clinical interview with the patient, moving from broadly phrased questions about symptoms to more detailed ones, which allow a precise rating of severity, covering the most recent 7 days. Total score is from 0 to 60, with a higher the score being the more severe.
Secondary outcome measures included the proportion of responders at week 8 (responders defined as a 50% decrease in MADRS total score from baseline); a change from baseline in MADRS total score at week 8; and a change in clinical status using CGI-I score at week 8. The Clinical Global Impression—Global Improvement (CGI-I) scale is a 7-point scale rated from 1 (very much improved) to 7 (very much worse). The investigator rated the patient's overall improvement relative to baseline, whether or not, in the opinion of the investigator, this was entirely due to the drug treatment.
Nucleic acid samples from the individuals were run on an Illumina™ HumanOmni5EXOME whole genome bead-chip array according to the manufacturer's protocol. The raw dataset of 595 samples times 4,641,218 variants was narrowed to 473 samples times 3,923,897 variants following quality control (QC).
(§3) A composite score (or genetic score) was calculated via penalized regression using a set of focused genomic regions. The cutoff point of the genetic score that maximizes treatment specific effect was then identified. Statistical significance (via a parametric bootstrap approach) of the treatment effect for the subgroup defined by the optimal cutpoint was then determined.

A further test relates to MDD individuals. Briefly: Treatment effect by MADRS and HAM-A scores in genetic subgroups. As to conditions: for Treatment-specific effect (MADRS scores): 5-variant and 7-variant models. As to the method: as §1, §2, §3
A least square means plot of MADRS scores obtained during treatment with 10 mg vortioxetine is shown in FIG. 12B using the 7-variant model. […]

Another test relates to adult MDD patients. In words: Cognition, Cognitive and Physical Functioning Questionnaire (CPFQ). As to conditions: for Cognition (CPFQ): 7-variant model, adult MDD patients. The text has this:
According to the CDC, cognitive impairment is when a person has trouble remembering, learning new things, concentrating, or making decisions that affect their everyday life. Cognitive impairment ranges from mild to severe. With mild impairment, people may begin to notice changes in cognitive functions, but still be able to do their everyday activities. Severe levels of impairment can lead to losing the ability to understand the meaning or importance of something and the ability to talk or write, resulting in the inability to live independently. Cognitive ability can be assessed by, for example, Massachusetts General Hospital Cognitive and Physical Functioning Questionnaire (see, e.g., Fava et al., J. Clin. Psychiatry, 67:11 (2006)) and/or the Digit Symbol Substitution Test (DSST) (see Mahableshwarker et al., Neuropsychopharmacology, in press 2015).
In FIG. 13, the term “SNP7=1” corresponds to patients in the subgroup identified by the 7-variant model; the term “SNP7=0” corresponds to patients not in the subgroup.

For the compound `Br.Cc1ccc(Sc2ccccc2N2CCNCC2)c(C)c1` [vortioxetine, 1-[2-(2,4-Dimethyl-phenylsulfanyl)-phenyl]-piperazine, hydrobromide], the Response rate in the test on adult patients with MDD (COL26A1 rs4045 and a CACNA1C variant positive) is on record as 14/17; with adult patients with MDD (Total), 40/120; in the test with adult patients with MDD (Variant negative), 6/25; with adult patients with MDD (subgroup N/A), 28/78. The “No Response (number of subjects)” value worked out at 50 in the test with adult patients with MDD (<NA>), 3 in the test with adult patients with MDD (In the Subgroup) and 19 in the test on adult patients with MDD (Not in Subgroup). Besides, the “Response (number of subjects)” value was 28 in the test on adult patients with MDD (<NA>), 14 in the test on adult patients with MDD (In the Subgroup) and 6 with adult patients with MDD (Not in Subgroup). The “Treatment-specific effect (MADRS scores)” value with MDD individuals (10 mg) and in the test with MDD individuals (20 mg) was “evidence for a treatment-specific effect” throughout. Further, in the test with MDD individuals (MDD individuals with rs4045 and a CACNA1C variant), the “Response to treatment as measured by MADRS and HAM-A scores” value was “significantly enhanced response”. In addition, the “Cognition (CPFQ)” value with adult MDD patients (10 mg/day) and with adult MDD patients (20 mg/day) was “evidence for improved cognition” throughout. In addition, in the test with adult MDD patients (individuals with COL26A1 rs4045 and a CACNA1C variant, 20 mg/day for 8 weeks), the Cognition entry is given as “improved cognition”.

The values are drawn from patent US20170137880A1, “METHOD FOR TREATING DEPRESSION AND MAJOR DEPRESSIVE DISORDER” (Takeda Pharmaceutical Company Limited, priority 2014, published 2017).
